ChEMBL document CHEMBL4321867, “Optimization of LpxC Inhibitor Lead Compounds Focusing on Efficacy and Formulation for High Dose Intravenous Administration” (J Med Chem, 2020)
≈ marks a conversion by molar mass, not a printed value.

Assays:
[1] = tested on: T1, UDP-3-O-acyl-N-acetylglucosamine deacetylase (Escherichia coli K-12), P0A725 [C125S]; conditions: 25 uM
T1 sequence (whole entry): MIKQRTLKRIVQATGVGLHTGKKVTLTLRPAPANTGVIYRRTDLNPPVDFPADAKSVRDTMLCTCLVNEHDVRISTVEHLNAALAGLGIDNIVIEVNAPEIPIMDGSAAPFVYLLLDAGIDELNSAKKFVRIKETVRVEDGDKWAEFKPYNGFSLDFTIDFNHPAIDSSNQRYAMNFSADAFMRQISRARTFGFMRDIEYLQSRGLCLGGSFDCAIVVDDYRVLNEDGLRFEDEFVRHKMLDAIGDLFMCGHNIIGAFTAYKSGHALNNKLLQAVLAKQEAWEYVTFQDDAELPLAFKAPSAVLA

[2] = tested on: T2, UDP-3-O-acyl-N-acetylglucosamine deacetylase (Pseudomonas aeruginosa (strain ATCC 15692 / PAO1 / 1C / PRS 101 / LMG12228)), P47205 [C40S]; conditions: 25 uM
T2 sequence (whole entry): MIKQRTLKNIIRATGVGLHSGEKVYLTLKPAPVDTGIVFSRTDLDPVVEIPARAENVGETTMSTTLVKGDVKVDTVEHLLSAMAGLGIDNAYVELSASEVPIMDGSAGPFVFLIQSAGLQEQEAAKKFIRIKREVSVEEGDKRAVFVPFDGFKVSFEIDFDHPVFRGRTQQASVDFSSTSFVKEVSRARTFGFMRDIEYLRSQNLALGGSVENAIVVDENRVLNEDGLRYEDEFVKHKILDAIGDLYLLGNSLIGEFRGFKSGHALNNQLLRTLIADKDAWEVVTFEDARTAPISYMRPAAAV

in vivo [3] = conditions: mouse, sc, 150 mg/kg
in vivo [4] = conditions: Wistar, rat, iv, 10 mg/kg
physchem [5] = conditions: n-octanol/phosphate buffer, pH 7.4
physchem [6] = experiment: physchem
physchem [7] = conditions: buffer, pH 4
physchem [8] = conditions: buffer, pH 7
physchem [9] = conditions: buffer, pH 9
in vitro [10] = conditions: rat, hepatocytes
in vitro [11] = conditions: rat, liver microsomes
in vitro [12] = conditions: human, hepatocytes
in vitro [13] = conditions: human, liver microsomes
in vitro [14] = conditions: rat, plasma
physchem [15] = conditions: 5% mannitol/water, pH 4.5
Escherichia coli [16] = experiment: microbe, parasite or virus in culture; conditions: ATCC 25922
Klebsiella pneumoniae [17] = experiment: microbe, parasite or virus in culture; conditions: T6474
Pseudomonas aeruginosa [18] = experiment: microbe, parasite or virus in culture; conditions: ATCC 27853
Citrobacter freundii = experiment: microbe, parasite or virus in culture
Klebsiella aerogenes = experiment: microbe, parasite or virus in culture
Enterobacter cloacae = experiment: microbe, parasite or virus in culture
Escherichia coli [19] = experiment: microbe, parasite or virus in culture
Klebsiella oxytoca = experiment: microbe, parasite or virus in culture
Klebsiella pneumoniae [20] = experiment: microbe, parasite or virus in culture
Morganella morganii = experiment: microbe, parasite or virus in culture
Proteus mirabilis = experiment: microbe, parasite or virus in culture
Serratia marcescens = experiment: microbe, parasite or virus in culture
Acinetobacter baumannii = experiment: microbe, parasite or virus in culture
Burkholderia cepacia = experiment: microbe, parasite or virus in culture
Haemophilus influenzae = experiment: microbe, parasite or virus in culture
Moraxella catarrhalis = experiment: microbe, parasite or virus in culture
Pseudomonas aeruginosa [21] = experiment: microbe, parasite or virus in culture
[22] = tested on: Stenotrophomonas maltophilia; experiment: microbe, parasite or virus in culture
in vivo [23] = conditions: Wistar, rat, iv, 50 mg/kg
in vivo [24] = conditions: mouse, sc, 50 mg/kg
physchem [25] = conditions: 5% mannitol/water, pH 8.4

Row | SMILES | AUC(0-t) at 24 h (in vivo [3]) [ng·h/mL] | clearance at 24 h (in vivo [4]) [mL/min/kg] | logD (physchem [5]) | solubility at 24 h (physchem [7]) [µg/mL] | solubility at 24 h (physchem [8]) [µg/mL] | solubility at 24 h (physchem [9]) [µg/mL] | hepatocyte CLint at 1 µM (in vitro [10]) [µL/min/1e6 cells] | microsomal CLint at 1 µM (in vitro [11]) [µL/min/mg] | hepatocyte CLint at 1 µM (in vitro [12]) [µL/min/1e6 cells] | microsomal CLint at 1 µM (in vitro [13]) [µL/min/mg] | fraction unbound at 1 µM (in vitro [14]) | MIC (Escherichia coli [16]) [µg/mL] | MIC (Klebsiella pneumoniae [17]) [µg/mL] | MIC (Pseudomonas aeruginosa [18]) [µg/mL] | MIC90 (Citrobacter freundii) [µg/mL] | MIC90 (Klebsiella aerogenes) [µg/mL] | MIC90 (Enterobacter cloacae) [µg/mL] | MIC90 (Escherichia coli [19]) [µg/mL] | MIC90 (Klebsiella oxytoca) [µg/mL] | MIC90 (Klebsiella pneumoniae [20]) [µg/mL] | also measured
1 | C[C@@](CCN1Cc2cc(C#CC#CC3CN(CCF)C3)cn2C1=O)(C(=O)NO)S(C)(=O)=O | 49100 | 38 | 1 | > 780 | 247 (≈ 532 µM) | > 780 | 15.4 | > 1250 | < 2 | < 10 | 0.067 | 0.06 (≈ 0.129 µM) | 0.25 (≈ 0.538 µM) | 0.5 (≈ 1.08 µM) | 0.5 (≈ 1.08 µM) | 1 (≈ 2.15 µM) | 1 (≈ 2.15 µM) | 0.25 (≈ 0.538 µM) | 0.125 (≈ 0.269 µM) | 2 (≈ 4.31 µM) | deltaTm [1]: 10.6 K; deltaTm [2]: 12.9 K; pKa (physchem [6]): 6.7; solubility (physchem [15]): 25000 µg/mL (≈ 53800 µM); MIC90 (Morganella morganii): 0.25 µg/mL (≈ 0.538 µM); MIC90 (Proteus mirabilis): 0.5 µg/mL (≈ 1.08 µM); MIC90 (Serratia marcescens): 0.25 µg/mL (≈ 0.538 µM); MIC90 (Acinetobacter baumannii): > 16 µg/mL; MIC90 (Burkholderia cepacia): 4 µg/mL (≈ 8.61 µM); MIC90 (Haemophilus influenzae): ≤ 0.03 µg/mL; MIC90 (Moraxella catarrhalis): > 16 µg/mL; MIC90 (Pseudomonas aeruginosa [21]): 1 µg/mL (≈ 2.15 µM); MIC90 [22]: > 16 µg/mL
2 | C[C@@](CCN1Cc2cc(C#CC#CC3CN(CCO)C3)cn2C1=O)(C(=O)NO)S(C)(=O)=O | 63200 | – | 0.1 | > 780 | > 780 | > 780 | 7.3 | 198 | < 2 | 14 | 0.301 | 0.5 (≈ 1.08 µM) | 1 (≈ 2.16 µM) | 0.5 (≈ 1.08 µM) | 1 (≈ 2.16 µM) | 1 (≈ 2.16 µM) | 4 (≈ 8.65 µM) | 1 (≈ 2.16 µM) | 4 (≈ 8.65 µM) | 2 (≈ 4.32 µM) | deltaTm [1]: 9.7 K; deltaTm [2]: 11.2 K; clearance at 24 h (in vivo [23]): 28 mL/min/kg; pKa (physchem [6]): 7.9; solubility (physchem [15]): 30000 µg/mL (≈ 64900 µM); MIC90 (Morganella morganii): 1 µg/mL (≈ 2.16 µM); MIC90 (Proteus mirabilis): 1 µg/mL (≈ 2.16 µM); MIC90 (Serratia marcescens): 1 µg/mL (≈ 2.16 µM); MIC90 (Acinetobacter baumannii): > 16 µg/mL; MIC90 (Burkholderia cepacia): 16 µg/mL (≈ 34.6 µM); MIC90 (Haemophilus influenzae): ≤ 0.03 µg/mL; MIC90 (Moraxella catarrhalis): > 16 µg/mL; MIC90 (Pseudomonas aeruginosa [21]): 2 µg/mL (≈ 4.32 µM); MIC90 [22]: > 16 µg/mL
3 | C[C@@](CCN1Cc2cc(C#CC#C[C@H]3C[C@@H]3CO)cn2C1=O)(C(=O)NO)S(C)(=O)=O | – | 17 | – | 600 (≈ 1380 µM) | 588 (≈ 1360 µM) | 628 (≈ 1450 µM) | 19 | < 10 | 3.2 | < 10 | 0.008 | 0.12 (≈ 0.277 µM) | 0.25 (≈ 0.577 µM) | 0.25 (≈ 0.577 µM) | – | – | – | – | – | – | AUC(0-t) at 24 h (in vivo [24]): 124000 ng·h/mL
4 | CN1CC(C#CC#Cc2cc3n(c2)C(=O)N(CC[C@](C)(C(=O)NO)S(C)(=O)=O)C3)C1 | 52900 | 18 | 0.3 | > 730 | > 730 | > 730 | 8.6 | 665 | < 2 | 48 | 0.19 | 0.5 (≈ 1.16 µM) | 0.5 (≈ 1.16 µM) | 0.5 (≈ 1.16 µM) | 1 (≈ 2.31 µM) | 1 (≈ 2.31 µM) | 4 (≈ 9.25 µM) | 1 (≈ 2.31 µM) | 4 (≈ 9.25 µM) | 4 (≈ 9.25 µM) | deltaTm [1]: 8.9 K; deltaTm [2]: 9.9 K; pKa (physchem [6]): 8.4; solubility (physchem [15]): 30000 µg/mL (≈ 69400 µM); MIC90 (Morganella morganii): 0.5 µg/mL (≈ 1.16 µM); MIC90 (Proteus mirabilis): 1 µg/mL (≈ 2.31 µM); MIC90 (Serratia marcescens): 0.5 µg/mL (≈ 1.16 µM); MIC90 (Acinetobacter baumannii): > 16 µg/mL; MIC90 (Burkholderia cepacia): 16 µg/mL (≈ 37 µM); MIC90 (Haemophilus influenzae): ≤ 0.03 µg/mL; MIC90 (Moraxella catarrhalis): > 16 µg/mL; MIC90 (Pseudomonas aeruginosa [21]): 2 µg/mL (≈ 4.62 µM); MIC90 [22]: > 16 µg/mL
5 | C[C@@](CCN1Cc2cc(C#CC#C[C@@H]3C[C@@]3(F)CO)cn2C1=O)(C(=O)NO)S(C)(=O)=O | 236000 | 5.2 | 0.9 | 220 (≈ 487 µM) | 248 (≈ 549 µM) | > 760 | 13 | 12 | < 2 | < 10 | 0.017 | 0.25 (≈ 0.554 µM) | 0.5 (≈ 1.11 µM) | 0.5 (≈ 1.11 µM) | 1 (≈ 2.21 µM) | 2 (≈ 4.43 µM) | 4 (≈ 8.86 µM) | 2 (≈ 4.43 µM) | 4 (≈ 8.86 µM) | 4 (≈ 8.86 µM) | solubility (physchem [25]): 1000 µg/mL (≈ 2210 µM); MIC90 (Morganella morganii): 0.5 µg/mL (≈ 1.11 µM); MIC90 (Proteus mirabilis): 2 µg/mL (≈ 4.43 µM); MIC90 (Serratia marcescens): 1 µg/mL (≈ 2.21 µM); MIC90 (Acinetobacter baumannii): > 16 µg/mL; MIC90 (Burkholderia cepacia): 2 µg/mL (≈ 4.43 µM); MIC90 (Haemophilus influenzae): ≤ 0.03 µg/mL; MIC90 (Moraxella catarrhalis): > 16 µg/mL; MIC90 (Pseudomonas aeruginosa [21]): 2 µg/mL (≈ 4.43 µM); MIC90 [22]: > 16 µg/mL
